{"source": "patent US20170189376A1", "about": "“BUTYROYLOXYMETHYL DIETHYL PHOSPHATE COMPOUNDS AND USES THEREOF” (MOR RESEARCH APPLICATIONS LTD., priority 2016, published 2017)", "key": {"MyLa cells [1]": {"system": "MyLa cells", "experiment": "cells", "assay_type": "cell-based, human", "settings": "trypan blue, column group printed 'AN-7', MyLa"}, "Hut78 cells [2]": {"system": "Hut78 cells", "assay_type": "cell-based, homo sapiens", "settings": "trypan blue; for IC50: column group printed 'SAHA'"}, "SPBL": {"system": "SPBL", "experiment": "FACS annexin V/PI apoptosis ex vivo, PBL of SS patients", "assay_type": "cell-based, human", "settings": "PBL from 2 SS patients, SAHA 4 μM or AN-7 200 μM, 48 h", "description": "The cells were then stained with annexin V and PI and analysed by FACS."}, "[3]": {"system": "caspase 3, PARP, P21 and Bax in MF/SS cell lines", "experiment": "Western blot of pro-apoptotic proteins in MF/SS cell lines", "assay_type": "cell-based, human", "settings": "MyLa and Hut78, SAHA 10 μM or AN-7 300 μM", "description": "However, there was a stronger signal in response to SAHA."}, "HDAC1": {"system": "HDAC1", "experiment": "Western blot of HDAC1 protein expression in MF/SS cell lines", "assay_type": "cell-based, human", "settings": "MyLa and Hut78, SAHA 10 μM or AN-7 300 μM"}, "[4]": {"system": "p-KAP1, γH2AX in MyLa cells", "experiment": "Western blot of p-KAP1 and γH2AX, MyLa cells", "assay_type": "cell-based, human", "settings": "1 mM AN-7 2 h, 1 μM Dox 1 h, or AN-7 1 h followed with Dox 1 h", "method": "(§1) Cell fraction—3×10^6cells were suspended in 100 μl hypotonic buffer (HEPES 10 mM, KCl 5 mM, MgCl2 1.5 mM, DTT 1 mM, NP-40 1%), incubated for 15 min in ice, centrifuged and the supernatant fraction was subjected to western blot of pKAP1 and actin. The sediment was washed once with hypotonic buffer followed by suspension in 100 μl of hypertonic buffer (HEPES 10 mM, NaCl 500 mM, MgCl2 1.5 mM, DTT 1 mM, NP-40 1%), incubated for 15 min in ice, centrifuged, supernatant was removed and the sediment was boiled, vortexed for 10 min at 95° C. with sample buffer ×3 for 3 times and subjected to western blot of γH2AX.\n(§2) Whole cells extract—Cells were suspended in lysis buffer (Tris-HCl 50 mM, NaCl 150 mM, NP-40 0.5%), incubated for lh on ice, centrifuged and the supernatant was collected. Protease and Phosphatase inhibitors were added to all buffers at a 1:100 dilutions. […] Bands were visualized by Odyssey Infrared Imaging System and the bands intense were normalized to actin.\n(§3) Next, cells were fractionated and fraction lysate were subjected to western blot of phosphorylated KAP1 (p-KAP1), γH2AX and actin."}, "[5]": {"system": "p-KAP1, γH2AX in Hut78 cells", "experiment": "Western blot of p-KAP1 and γH2AX, Hut78 cells", "assay_type": "cell-based, homo sapiens", "settings": "0.5 mM AN-7 2 h, 0.5 μM Dox 1 h, or AN-7 1 h followed with Dox 1 h", "method": "as §1, §2, §3"}, "[6]": {"system": "NBS1, Rad51, Mre11, DNA-PK, Ku70 in MyLa cells", "experiment": "Western blot of DSB repair proteins, MyLa cells", "assay_type": "cell-based, human", "settings": "24 and 48 h post treatment", "method": "as §2\n(§4) To address whether AN-7 interfere in DSBs repair by regulating the expression of DSBs repair proteins, Immunoblot was applied for those proteins. MyLa and Hut78 cells were treated as previously described and subjected to western blot of DSBs repair proteins."}, "[7]": {"system": "NBS1, Rad51, Mre11, DNA-PK, Ku70 in Hut78 cells", "experiment": "Western blot of DSB repair proteins, Hut78 cells", "assay_type": "cell-based, homo sapiens", "settings": "Hut78, 18 and 24 h post treatment", "method": "as §2, §4"}, "U2OS GFP-reporter cells": {"system": "U2OS GFP-reporter cells", "experiment": "HR activity assay, U2OS GFP-reporter cells", "assay_type": "cell-based", "settings": "1 mM AN-7 for 48 h", "method": "U2OS cells with the linearized HRsub reporter (Puget et al. DNA Repair 4 (2005) 149-161) were transfected with: SceI-expression vector pCBASce; pCBA vector without Sce-I; and GFP control vector, each one separately with FuGENE 6 transfection reagent (Promega). 24 h later 2×10̂5 cells/ml were seeded in 35 mm plates and 6 h later were treated with 1 mM AN-7 for 48 hr. Cells were washed with PBS then harvested with Trypsin solution, neutralized with PBS+10% FBS, centrifuged in 1200 rpm for 10 min, suspended with PBS+10% FBS and GFP-positive cells were quantified by flow cytometry analysis. Cells excitation was done with 488nm laser; the reading of FL1 values was done in 530 nm. Percent of cells with repaired DSB induced by Sce-I via HR are presented as percent of GFP positive cells which are calculated as follow: (%GFP of cells expressing Sce-I pCBASce)−(%GFP of cells expressing empty pCBASce)/(%GFP of cells expressing GFP control vector).\nThe role of AN-7 in suppressing directly the repair of DSBs, was verified. To this end, one of the machinery for repairing DSBs, the HR repair machinery, was tested. […] The U2OS-GFP cells were transfected with I-SceI plasmid for 24 hours, treated then with AN-7 for another 48 h and then analyzed for GFP expression in FACS analysis. […]"}, "MyLa cells [8]": {"system": "MyLa cells", "experiment": "MTT-based viability assay, MyLa cells", "quoted_text": "(§5) MyLa cells (10^4), Hut78 cells (5×10^3), SPBL and NPBL (10^5) were seeded in triplicate in 96-well plates. The PBL were activated with PHA 40 μg/10^6 cell for 24 h before the experiment. […] The cells were then placed in a humidified incubator for 72 h. […] The MTT reagent was added to a final concentration of 0.5 mg/mL, and the cells were incubated for an additional 4 h. Thereafter, 0.1N HCl in isopropanol was added, and cell viability was determined using an ELISA reader (PowerWaveX, BioTek, Winooski, Vt., USA) at a 570 nm wavelength with background subtraction at 630-690 nM.\n(§6) Viability and apoptosis curves were based on the averages of at least 3 independent experiments. The standard error (SE) was calculated for each group as follows: SE=standard deviation/√n, where n is number of values in the group. […] Significant differences in selectivity among groups were analyzed by comparing the IC50 values using two-tailed unpaired t-test using Excel or by comparing the differential effects for all the dose response titrations using ANOVA with repeated measures."}, "Hut78 cells [9]": {"system": "Hut78 cells", "experiment": "MTT-based viability assay, Hut78 cells", "quoted_text": "as §5, §6"}, "[10]": {"system": "Sezary syndrome Peripheral blood lymphocytes SPBL", "experiment": "MTT-based viability assay, Sezary PBL (SPBL)", "settings": "for IC50: Sezary PBL", "quoted_text": "(§7) Peripheral blood was diluted 1:3 in sterile phosphate-buffered saline (PBS). Lymphoprep was added in the same blood volume with a Pasteur pipette, and the sample was centrifuged. PBL were collected from the white median interphase, rinsed twice with PBS, and suspended in RPMI medium with 10 mM HEPES to 2×10^6 cells/mL.\nas §5, §6\n(§8) NPBL were treated at same molar ratio as SPBL."}, "NPBL": {"system": "NPBL", "experiment": "MTT-based viability assay, normal PBL (NPBL)", "settings": "for IC50: Normal PBL", "quoted_text": "as §7, §5, §6, §8"}, "Acetylated H3": {"system": "Acetylated H3", "experiment": "Western blot of acetylated H3 in nuclear lysate of MF/SS cell lines", "settings": "MyLa and Hut78, SAHA 10 μM or AN-7 300 μM", "quoted_text": "Cells (5×10^6) were suspended in 300 μL of cytoplasmic buffer (HEPES 10 mM, KCl 10 mM, EDTA 1 mM, EGTA 1 mM, DTT 1 mM). After 20 min of incubation on ice, the mixture was passed 5 times through a 25-G syringe and then centrifuged briefly to obtain the cytoplasmic supernatant.\nThe nuclear pellet was suspended in 40-60 μL of nuclear buffer (cytoplasmic buffer+10% glycerol), incubated with shaking at 4° C. for 15 min, and centrifuged. The supernatant was collected as a nuclear fraction.\nCell extracts were separated by SDS-polyacrylamide gel electrophoresis (SDS-PAGE), transferred to a nitrocellulose membrane, and subjected to immunoblot with primary and secondary antibodies, as listed in table 1."}, "MyLa cells [11]": {"system": "MyLa cells", "experiment": "FACS analysis with annexin V and PI staining (apoptosis), MyLa cells", "quoted_text": "(§9) The cells (2.5×10^6 cells/mL) were washed in PBS and binding buffer and were resuspended in binding buffer, and of fluorescein isothiocyanate-conjugated annexin V (5 μL) was added to a 100 μL cell suspension for 10-15 min. Incubation was performed at room temperature under light-protected conditions. The cells were then washed in binding buffer and were resuspended in the binding buffer and propidium iodide (PI) (5 μL) was added. The samples were analyzed by flow cytometry (FACS Calibur 4.1.6, Becton Dickinson): fluorescein-labeled annexin V at a 530 nm wavelength, and PI at a 585 nm wavelength. The percentage of cells was calculated by their distribution in a fluorescence dot plot generated with FCS Express 4 software (De Novo Software, Los Angeles, Calif., USA). Early (annexin V-positive) and late (annexin V+PI-positive) apoptotic cells were summed to yield the total number of apoptotic cells."}, "Hut78 cells [12]": {"system": "Hut78 cells", "experiment": "FACS analysis with annexin V and PI staining (apoptosis), Hut78 cells", "quoted_text": "as §9"}, "[13]": {"settings": "long exposure 24 h, read-out: IC50 Long exposure"}, "[14]": {"settings": "read-out: IC50 single treatment (HDACI), MTT 72 h, Table 4"}}, "note": "Where two headings read alike, the source gives them in different places.", "data": [{"molecule": "CCCC(=O)OCOP(=O)(OCC)OCC", "note": "[AN-7, Butyroyloxymethyl diethyl phosphate]", "values": [{"measurement": "IC50", "setting": "MyLa cells [1]; 4 h then washout and 44 h, read-out: IC50 Short exposure", "value": "141 ± 9.8", "unit": "µM"}, {"measurement": "IC50", "setting": "MyLa cells [1]; [13]", "value": "159 ± 34.8", "unit": "µM"}, {"measurement": "IC50 short exposure/IC50 long exposure", "setting": "Hut78 cells [2]", "value": 1.3}, {"measurement": "IC50", "setting": "Hut78 cells [2]; 4 h then washout and 20 h, read-out: IC50 Short exposure", "value": "88 ± 4.6", "unit": "µM"}, {"measurement": "IC50", "setting": "Hut78 cells [2]; [13]", "value": "67 ± 2.5", "unit": "µM"}, {"measurement": "apoptosis induction in SPBL ex vivo", "setting": "SPBL", "value": "directed more SPBL cells into apoptotic death than SAHA"}, {"measurement": "expression of pro-apoptotic proteins (western blot)", "setting": "[3]", "value": "cleavage of caspase 3 and poly ADP-ribose polymerase (PARP) and the production of P21 and Bax"}, {"measurement": "HDAC1 expression level", "setting": "HDAC1", "value": "downregulated"}, {"measurement": "induction and clearance of p-KAP1", "setting": "[4]", "value": "did not affect the expression of p-KAP1 and γH2AX"}, {"measurement": "induction and clearance of γH2AX", "setting": "[4]", "value": "did not affect the expression of p-KAP1 and γH2AX"}, {"measurement": "induction and persistence of p-KAP1 and γH2AX", "setting": "[5]", "value": "did not affect the expression of p-KAP1 and γH2AX"}, {"measurement": "expression of NBS1, Mre11, Rad51 and DNA-PK", "setting": "[6]", "value": "did not affect the expression of DSB repair proteins"}, {"measurement": "expression of NBS1 and DNA-PK", "setting": "[7]", "value": "did not affect the expression of DSB repair proteins"}, {"measurement": "proportion of cells expressing GFP (frequency of HR repair of I-SceI-induced DSBs)", "setting": "U2OS GFP-reporter cells", "value": "significantly reduce"}, {"measurement": "IC50", "setting": "MyLa cells [8]; MyLa cells, MTT, 72 h", "value": "120 ± 5.3", "unit": "µM"}, {"measurement": "selectivity vs NPBL by dose-response titration", "setting": "MyLa cells [8]; MyLa vs NPBL, ANOVA with repeated measures", "value": "significantly selective"}, {"measurement": "Selectivity index (SI)", "setting": "MyLa cells [8]; SI=IC50 NPBL/IC50 MyLa", "value": 1.7}, {"measurement": "IC50", "setting": "MyLa cells [8]; read-out: IC50 single treatment (HDACI), MyLa, MTT 72 h, Table 4", "value": "81.7 ± 4.4", "unit": "µM"}, {"measurement": "IC50", "setting": "Hut78 cells [9]; Hut78 cells, MTT, 72 h", "value": "59 ± 4.3", "unit": "µM"}, {"measurement": "selectivity vs NPBL by dose-response titration", "setting": "Hut78 cells [9]; Hut78 vs NPBL, ANOVA with repeated measures", "value": "significantly selective"}, {"measurement": "Selectivity index (SI)", "setting": "Hut78 cells [9]; SI=IC50 NPBL/IC50 Hut78", "value": 3.4}, {"measurement": "IC50", "setting": "Hut78 cells [9]; read-out: IC50 single treatment (HDACI), Hut78, MTT 72 h, Table 4", "value": "59 ± 4.3", "unit": "µM"}, {"measurement": "Selectivity index (SI)", "setting": "[10]; SI=IC50 NPBL/IC50 Sezary PBL", "value": 3.56}, {"measurement": "selectivity of induced death vs NPBL", "setting": "[10]; SPBL vs NPBL, by IC50 values", "value": "selective death"}, {"measurement": "IC50", "setting": "[10]; MTT, 72 h", "value": 128, "unit": "µM"}, {"measurement": "lethality of high doses to SPBL", "setting": "[10]; high doses, MTT 72 h", "value": "more lethal to SPBL than high doses of SAHA"}, {"measurement": "IC50", "setting": "[10]; [14]", "value": "128 ± 5.2", "unit": "µM"}, {"measurement": "IC50", "setting": "NPBL; MTT, 72 h", "value": "200 ± 2.8", "unit": "µM"}, {"measurement": "NPBL survival at high doses", "setting": "NPBL; high doses lethal to Hut78 and MyLa cells", "value": 50, "unit": "%"}, {"measurement": "IC50", "setting": "NPBL; [14]", "value": "191 ± 26.1", "unit": "µM"}, {"measurement": "expression of acetylated H3", "setting": "Acetylated H3", "value": "induced"}, {"measurement": "apoptosis", "setting": "MyLa cells [11]; SAHA 10 μM or AN-7 300 μM", "value": "about 60%"}, {"measurement": "apoptosis after short exposure compared to long exposure (fold less)", "setting": "MyLa cells [11]; annexin V + PI", "value": "no significant difference"}, {"measurement": "apoptosis after short exposure compared to long exposure (fold less)", "setting": "Hut78 cells [12]; Hut78, annexin V + PI", "value": "no significant difference"}, {"measurement": "apoptosis", "setting": "Hut78 cells [12]; Hut78, SAHA 10 μM or AN-7 300 μM", "value": "about 60%"}]}]}
